The record followed here is patent US5981497A, “Utilization of sophorolipids as therapeutically active substances or cosmetic products, in particular for the treatment of the skin” (Institut Francais du Petrole, priority 1995, dated 1999).

Data set [1] has as its system macrophages (Interleukin-1 release). Nature of the data set: IL-1 released by macrophages (Elisa sandwich test on culture supernatant). The format is cell-based. The conditions noted are these: 25 μg/ml. The text has this: It is known, however, that several factors such as cytokines and growth factors play important roles in the process of wound healing. These factors include the epidermal growth factor (EGF), the fibroblastic growth factor (FGF), the platelet-derived growth factor (PDGF), and the beta transforming growth factor (beta-TGF). In addition to these factors, cytokines such as interleukin-l (IL-1), the tumor necrosis factor (TNF), and interleukin-6 (IL-6) also play important roles in the process of wound healing. These factors act by different methods, in combination with other materials, to induce proliferation of dermal and epidermal elements such as fibroblasts. […] Actually, IL-1 affects the differentiation, growth, and activity of many cellular types in the organism. Within the immune system, IL-1 acts as a second signal that is necessary to activate the IL-2 circuit by the activated T lymphocytes. It also potentiates the action of other cytokines. It contributes to the differentiation of B lymphocytes and to their production of immunoglobulins. It modifies vascular permeability by the release of mediators by the endothelial cells and induces the appearance at their surface of a factor that has a procoagulating activity. Owing to its proliferative effect on the fibroblasts, it intervenes in the repair phase.
To show the effect of activating macrophages by sophorolipids, an Elisa sandwich test was carried out on the supernatant of a culture medium that contained macrophages. […] A negative test was also used.

A short description of data set [2]: in vitro. The conditions noted are these: keratinocyte culture.
Experimental: A keratinocyte culture that was placed under conditions that promote the differentiation of cells was selected as a cellular model for the study. The actions of sophorolipids in acid form A, sophorolipids in lactone form B, and lactic acid on the detachment of corneocytes of the selected cellular model were tested in vitro in parallel. In each experiment, the mean difference T60-T0 (corneocytes/ml), as well as the proportion of detached corneocytes, expressed in percentage relative to the negative test (%/TN), were determined.
Cellular viability, measured with the Neutral Red test, is expressed relative to the negative test (%).
Data set [3] concerns keratinocyte culture (detachment of corneocytes). Description: Desquamating test, detachment of corneocytes in vitro. The format is cell-based. From the text:
Variation coefficient CV is obtained as follows: [formula]
Actually, the therapeutic applications incidentally involve cosmetic applications.

“Lipopolysaccharides [reference compound]”: the “Concentrations IL-1 released by macrophages” value in data set [1] came out at 421.61 pg/mL.

Consider `CC(O)C(=O)O` (centres unmarked) [Lactic acid, lactic acid, reference compound], for which, in data set [2], the viability at 1000 µM was found to be 99.5%. This compound had a T60-T0 mean difference in data set [3] (10^-3M, p less than 0.001) of 2500 corneocytes/ml. Further, the activity at 1000 µM in data set [3] (Keratinocyte, 10^-3M, read-out: %/TN, proportion of detached corneocytes relative to the negative test) came out at 214%. In data set [3] (Keratinocyte, read-out: T200 (concentration which causes a release of corneocytes twice that observed with the negative test)), the EC (2-fold corneocyte release) was roughly 1000 µM.
